The values below come from patent US12661357B2, “Use of pyrido[1,2-a]pyrimidone analogue” (GUANGZHOU JOYO PHARMATECH CO., LTD, priority 2021, dated 2026).

Test [1] deals with human-derived colorectal cancer CO-04-0032 subcutaneous xenograft tumor. Description: In vivo efficacy, CO-04-0032 subcutaneous xenograft tumor model. Set-up: species or system BALB/c nude mice. Conditions: for Tumor volume (Day 28): mean ± SEM. The text has this:
Experimental purpose: Study the in vivo efficacy of the test drug on human-derived colorectal cancer CO-04-0032 subcutaneous xenograft tumor model in nude mice.
Experimental design: • (1) Animals: BALB/c nude mice, female, 6 weeks old, weighing 16-18 grams. […] CO-04-0032 was a PDX model of human-derived colon cancer independently developed by WuXi AppTec New Drug Development Co., Ltd. See Table 5 below for the experimental grouping and dosing regimen.

In test [2] the test system is RPMI2650 head and neck cancer cells. Description: CTG cell proliferation IC50, RPMI 2650. The class given is cell-based. The conditions noted are these: 72 hours, read-out: Absolute IC50. The text has this: (§1) • 2). IC50 value: the concentration of inhibitor when 50% inhibitory effect was achieved; • 3). CAL-27 and RPMI 2650: head and neck cancer cell models; HepG2: hepatocellular cancer cells. CAL-27, RPMI 2650 and HepG2 cells were purchased from ATCC, where ATCC® No. was CRL-2095™, CCL-30™, HB-8065™, respectively. • 4). Both KYSE-150 and TE-1 were esophageal cancer cell models. The KYSE-150 cell line was purchased from DSMZ (German Collection of Microorganisms and Cell Cultures), and the DSMZ No. was ACC375; the TE-1 cell line was purchased from National Collection of Authenticated Cell Cultures, catalog number: TCHu89. • 5). RPMI 1640/F12 medium was a 1:1 mixture of RPMI 1640 medium and F12 medium. • 6). The percentages in 10% FBS in Table 1 and Table 2 were volume percentages. (2) Reagents • 1). FBS (fetal bovine serum) (purchased from ExCell, product number: FND500); • 2). MEM medium (purchased from Hyclone, product number: SH30024.01; • 3). DMEM medium (purchased from Gibco, product number: C11995500BT); • 4). MEM NEAA (purchased from Gibco, product number: 11140-050); • 5). RPMI1640 Culture medium (purchased from Gibco, product number: 11875-119); • 6). F12 Culture medium (purchased from Gibco, product number: 11765-054); (3) Test Article and Positive Control Article
(§2) 2. CTG Method was Used to Determine the Cell Proliferation IC50 of the Compound
(§3) • Step 1: Cells in exponential growth phase were harvested, and viable cells were counted with a Vi-Cell XR cytometer. The cell suspension was adjusted to an appropriate concentration with medium. […] After 10 minutes, the fluorescence signal value was measured with an Envision2104 plate reader. […]
(§4) Cell survival rate was calculated using the formula: Vsample/Vvehicle control×100%. Where, Vsample was the reading of the drug treatment group, and Vvehicle control was the average value of the solvent control group. GraphPad Prism 5.0 software was used, and a S-type dosage-survival rate curve was drawn using a nonlinear regression model and IC50 value was calculated.

In test [3] the test system is CAL-27 head and neck cancer cells. Description: CTG cell proliferation IC50, CAL-27. The class given is cell-based. Conditions: CAL-27 cells, 72 hours, read-out: Absolute IC50.
Description: as §1, §2, §3, §4

Test [4] deals with TE-1 esophageal cancer cells. Description: CTG cell proliferation IC50, TE-1. The conditions noted are these: TE-1 cells, read-out: Absolute IC50. The class given is cell-based.
Description: as §1, §2
(§5) • Step 1: Cells in exponential growth phase were harvested, and viable cells were counted with a Vi-Cell XR cytometer. The cell suspension was adjusted to an appropriate concentration with medium. 90 μL of cell suspension was added to each well of a 96-well cell culture plate, and the final cell concentration was 1500-6000 cells/well. • Step 2: The initial concentration of administration of compound I is 3 μM, and the initial concentration of administration of the control drug Alpelisib and Cisplatin was 10 μM, serially diluted 3-fold, a total of 9 concentration gradients and a DMSO control, the final concentration of DMSO in each well was 0.1%, placed in a 37° C., 5% CO2 incubator for 72 hours. • Step 3: After 72 hours of drug treatment, 50 μL (½ culture volume) CTG solution that was melted and equilibrated to room temperature was added to each well according to the CTG operation instructions. […] After 10 minutes, the fluorescence signal value was measured with an Envision2104 plate reader. […]
as §4

The test system of test [5] is KYSE-150 esophageal cancer cells. Description: CTG cell proliferation IC50, KYSE-150. The class given is cell-based. The conditions noted are these: KYSE-150 cells, read-out: Absolute IC50.
Description: as §1, §2, §5, §4

Setting [6] is: 5 mg/kg, oral, once a day for 28 days.
Where [7] appears, read: 20 mg/kg, vein, once a week, day 28.

Like-named read-outs stand apart in the source and are kept apart here.

Take `CO[C@H]1C[C@@H]2CC[C@@H](C)[C@@](O)(O2)C(=O)C(=O)N2CCCC[C@H]2C(=O)O[C@H]([C@H](C)C[C@@H]2CC[C@@H](OCCO)[C@H](OC)C2)CC(=O)[C@H](C)/C=C(\C)[C@@H](O)[C@@H](OC)C(=O)[C@H](C)C[C@H](C)/C=C/C=C/C=C/1C` [Everolimus, reference compound]: in test [1] (setting [6]), the T/C turned out to be 42%, the TGI is 60% and the “Tumor volume (Day 28)” value was 739 ± 206 mm^3.

For the compound `N.N.[Cl][Pt][Cl]` [Cisplatin, reference compound], the half-inhibitory concentration (IC50) was 4250 nM in test [2] and 4370 nM in test [3].

In the case of `CN(C)C1CCN(C(=O)c2ccc(NC(=O)Nc3ccc(-c4nc(N5CCOCC5)nc(N5CCOCC5)n4)cc3)cc2)CC1` [PF05212384, reference compound], in test [1] (setting [7]), the T/C is 68%, the tumour growth inhibition (TGI) is 44% and the “Tumor volume (Day 28)” value is listed as 971 ± 249 mm^3.

Consider `Cc1nc(NC(=O)N2CCC[C@H]2C(N)=O)sc1-c1ccnc(C(C)(C)C(F)(F)F)c1` [Alpelisib, reference compound], for which the 50% inhibitory concentration (IC50) in test [4] (Homo sapiens, TE-1, 72 h) was over 2000 nM; in test [4] (72 hours) it was over 3000 nM; in test [5] (Homo sapiens, KYSE-150, 72 h), over 2000 nM; in test [5] (72 hours), 2110 nM.
